In US12331026B2 (NiKang Therapeutics, Inc., priority 2022, dated 2025):

Target: T1, CDK2 (Homo sapiens, UniProt P24941)
T1 construct: endogenous in cells; host or cells: OVCAR3 cells
Assay: Phospho-RB measurement in OVCAR3 cells (HTRF phospho-RB S807/811)
Format: cell-based
Details: phosphorylation of RB protein at S807/811, HTRF, 24 h compound treatment, 0.3 to 10,000 nM, read-out: pRb (uM)
Procedure, shortened: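 IC50 values come from four-parameter logistic fits of the DMSO-normalised 665/620 nm TR-FRET ratio for phospho-RB (S807/811). Antibody detection ran 4 h at room temperature.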

Row | Compound | IC50 [µM]
1 | CS(=O)(=O)C1CCC(Nc2nccc(-c3sc(C45CC(F)(C4)C5)nc3-c3cccc(NS(=O)(=O)c4c(F)cccc4C(F)(F)F)c3F)n2)CC1 (stereo not drawn) [Example 27, 2-fluoro-N-(2-fluoro-3-(2-(3-fluorobicyclo[1.1.1]pentan-1-yl)-5-(2-(((1s,4s)-4-(methylsulfonyl)cyclohexyl)amino)pyrimidin-4-yl)thiazol-4-yl)phenyl)-6-(trifluoromethyl)benzenesulfonamide] | 0.066
2 | CC1CCC(C)N1c1nc(-c2cccc(NS(=O)(=O)c3c(F)cccc3F)c2F)c(-c2ccnc(NC3CC4(C3)CS(=O)(=O)C4)n2)s1 (stereo not drawn) [Example 65, N-(3-(2-(2,5-dimethylpyrrolidin-1-yl)-5-(2-((2,2-dioxido-2-thiaspiro[3.3]heptan-6-yl)amino)pyrimidin-4-yl)thiazol-4-yl)-2-fluorophenyl)-2,6-difluorobenzenesulfonamide] | 0.39
3 | O=S1(=O)C[C@@H]2[C@H](C1)[C@H]2Nc1nccc(-c2sc(C3(C(F)F)CC3)nc2-c2cccc(NS(=O)(=O)c3c(F)cccc3OC(F)F)c2F)n1 [Example 129, 2-(difluoromethoxy)-N-(3-(2-(1-(difluoromethyl)cyclopropyl)-5-(2-(((1R,5S,6r)-3,3-dioxido-3-thiabicyclo[3.1.0]hexan-6-yl)amino)-pyrimidin-4-yl)thiazol-4-yl)-2-fluorophenyl)-6-fluorobenzene-sulfonamide] | 0.09
4 | O=S1(=O)C[C@@H]2[C@H](C1)[C@@H]2Nc1nccc(-c2sc(C34CC5CC(CC(C5)C3)C4)nc2-c2cccc(NS(=O)(=O)c3c(F)cccc3F)c2F)n1 [Example 76, N-(3-(2-((3R,5R,7R)-adamantan-1-yl)-5-(2-(((1R,5S,6s)-3,3-dioxido-3-thiabicyclo[3.1.0]hexan-6-yl)amino)pyrimidin-4-yl)thiazol-4-yl)-2-fluorophenyl)-2,6-difluorobenzenesulfonamide] | 0.87
5 | C[C@H]1COC[C@H](C)N1c1nc(-c2cccc(NS(=O)(=O)c3c(F)cccc3C(F)(F)F)c2F)c(-c2ccnc(N[C@H]3[C@@H]4CS(=O)(=O)C[C@@H]43)n2)s1 [Example 114, N-(3-(2-((3S,5S)-3,5-dimethylmorpholino)-5-(2-(((1R,5S,6r)-3,3-dioxido-3-thiabicyclo[3.1.0]hexan-6-yl)amino)pyrimidin-4-yl)thiazol-4-yl)-2-fluorophenyl)-2-fluoro-6-(trifluoromethyl)benzenesulfonamide] | 0.3
6 | O=S1(=O)CC2(CC(Nc3nccc(-c4sc(C56CC(C5)C6)nc4-c4cccc(NS(=O)(=O)c5c(F)cccc5C(F)(F)F)c4F)n3)C2)C1 [Example 26, N-(3-(2-(bicyclo[1.1.1]pentan-1-yl)-5-(2-((2,2-dioxido-2-thiaspiro[3.3]heptan-6-yl)amino)pyrimidin-4-yl)thiazol-4-yl)-2-fluorophenyl)-2-fluoro-6-(trifluoromethyl)benzenesulfonamide] | 0.016
7 | O=S1(=O)CC2(CC(Nc3nccc(-c4sc(N5C6CCC5COC6)nc4-c4cccc(NS(=O)(=O)c5c(F)cccc5F)c4F)n3)C2)C1 [Example 2, N-(3-(2-(3-oxa-8-azabicyclo[3.2.1]octan-8-yl)-5-(2-((2,2-dioxido-2-thiaspiro[3.3]heptan-6-yl)amino)pyrimidin-4-yl)thiazol-4-yl)-2-fluorophenyl)-2,6-difluorobenzenesulfonamide] | 0.15
8 | O=S1(=O)CC2(CC(Nc3nccc(-c4sc(N5C6CCC5CN(C5CCC(F)(F)CC5)C6)nc4-c4cccc(NS(=O)(=O)c5c(F)cccc5F)c4F)n3)C2)C1 [Example 147, N-(3-(2-(3-(4,4-difluorocyclohexyl)-3,8-diazabicyclo[3.2.1]octan-8-yl)-5-(2-((2,2-dioxido-2-thiaspiro[3.3]heptan-6-yl)amino)pyrimidin-4-yl)thiazol-4-yl)-2-fluorophenyl)-2,6-difluorobenzenesulfonamide] | 0.91
9 | O=S1(=O)CC2(CC(Nc3nccc(-c4sc(C56CC(C5)C6)nc4-c4cccc(NS(=O)(=O)c5c(F)cccc5OC(F)F)c4F)n3)C2)C1 [Example 58, N-(3-(2-(bicyclo[1.1.1]pentan-1-yl)-5-(2-((2,2-dioxido-2-thiaspiro[3.3]heptan-6-yl)amino)pyrimidin-4-yl)thiazol-4-yl)-2-fluorophenyl)-2-(difluoromethoxy)-6-fluorobenzenesulfonamide] | 0.09
10 | O=S1(=O)CC2(CC(Nc3nccc(-c4sc(C5(C(F)(F)F)CCC5)nc4-c4cccc(NS(=O)(=O)c5c(F)cccc5C(F)(F)F)c4F)n3)C2)C1 [Example 84, N-(3-(5-(2-((2,2-dioxido-2-thiaspiro[3.3]heptan-6-yl)amino)-pyrimidin-4-yl)-2-(1-(trifluoromethyl)cyclobutyl)thiazol-4-yl)-2-fluorophenyl)-2-fluoro-6-(trifluoromethyl)benzenesulfonamide] | 0.03
11 | O=S1(=O)CC2(CC(Nc3nccc(-c4sc(C56CCC(CC5)C6)nc4-c4cccc(NS(=O)(=O)c5c(F)cccc5F)c4F)n3)C2)C1 [Example 32, N-(3-(2-(bicyclo[2.2.1]heptan-1-yl)-5-(2-((2,2-dioxido-2-thiaspiro[3.3]heptan-6-yl)amino)pyrimidin-4-yl)thiazol-4-yl)-2-fluorophenyl)-2,6-difluorobenzenesulfonamide] | 0.08
12 | O=S1(=O)CC2(CC(Nc3nccc(-c4sc(N5CC6CCC(C5)N6c5ccccn5)nc4-c4cccc(NS(=O)(=O)c5c(F)cccc5F)c4F)n3)C2)C1 [Example 37, N-(3-(5-(2-((2,2-dioxido-2-thiaspiro[3.3]heptan-6-yl)amino)-pyrimidin-4-yl)-2-(8-(pyridin-2-yl)-3,8-diazabicyclo[3.2.1]octan-3-yl)thiazol-4-yl)-2-fluorophenyl)-2,6-difluorobenzenesulfonamide] | 0.42
13 | O=S1(=O)CC2(CC(Nc3nccc(-c4sc(C56CC(C5)C6)nc4-c4cccc(NS(=O)(=O)c5c(F)cccc5C(F)F)c4F)n3)C2)C1 [Example 47, N-(3-(2-(bicyclo[1.1.1]pentan-1-yl)-5-(2-((2,2-dioxido-2-thiaspiro[3.3]heptan-6-yl)amino)pyrimidin-4-yl)thiazol-4-yl)-2-fluorophenyl)-2-(difluoromethyl)-6-fluorobenzenesulfonamide] | 0.05
14 | O=S1(=O)C[C@@H]2[C@H](C1)[C@@H]2Nc1nccc(-c2sc(N3C4CCC3CN(C3CC(F)(F)C3)C4)nc2-c2cccc(NS(=O)(=O)c3c(F)cccc3C(F)(F)F)c2F)n1 [Example 108, N-(3-(2-(3-(3,3-difluorocyclobutyl)-3,8-diazabicyclo[3.2.1]octan-8-yl)-5-(2-(((1R,5S,6s)-3,3-dioxido-3-thiabicyclo[3.1.0]hexan-6-yl)amino)pyrimidin-4-yl)thiazol-4-yl)-2-fluorophenyl)-2-fluoro-6-(trifluoromethyl)benzenesulfonamide] | 0.1
15 | O=S1(=O)CC2(CC(Nc3nccc(-c4sc(C56CCC(C5)C6)nc4-c4cccc(NS(=O)(=O)c5c(F)cccc5F)c4F)n3)C2)C1 [Example 20] | 0.24
16 | CC1(c2nc(-c3cccc(NS(=O)(=O)c4c(F)cccc4F)c3F)c(-c3ccnc(NC4CC5(C4)CS(=O)(=O)C5)n3)s2)CCNCC1 [Example 14, N-(3-(5-(2-((2,2-dioxido-2-thiaspiro[3.3]heptan-6-yl)amino)pyrimidin-4-yl)-2-(4-methylpiperidin-4-yl)thiazol-4-yl)-2-fluorophenyl)-2,6-difluorobenzenesulfonamide] | 18.1
17 | C[C@H]1COC[C@H](C)N1c1nc(-c2cccc(NS(=O)(=O)c3c(F)cccc3F)c2F)c(-c2ccnc(NC3CC4(C3)CS(=O)(=O)C4)n2)s1 [Example 4, N-(3-(2-((3S,5S)-3,5-dimethylmorpholino)-5-(2-((2,2-dioxido-2-thiaspiro[3.3]heptan-6-yl)amino)pyrimidin-4-yl)thiazol-4-yl)-2-fluorophenyl)-2,6-difluorobenzenesulfonamide] | 0.13
18 | O=S1(=O)CC2CCC(C1)N2c1nc(-c2cccc(NS(=O)(=O)c3c(F)cccc3F)c2F)c(-c2ccnc(NC3CC4(C3)CS(=O)(=O)C4)n2)s1 [Example 48, N-(3-(5-(2-((2,2-dioxido-2-thiaspiro[3.3]heptan-6-yl)amino)-pyrimidin-4-yl)-2-(3,3-dioxido-3-thia-8-azabicyclo[3.2.1]octan-8-yl)thiazol-4-yl)-2-fluorophenyl)-2,6-difluorobenzenesulfonamide] | 7.13
19 | O=S1(=O)C[C@@H]2[C@H](C1)[C@H]2Nc1nccc(-c2sc(N3C4CCC3CN(C3CC(F)(F)C3)C4)nc2-c2cccc(NS(=O)(=O)c3c(F)cccc3OC(F)F)c2F)n1 [Example 123, N-(3-(2-(3-(3,3-difluorocyclobutyl)-3,8-diazabicyclo[3.2.1]octan-8-yl)-5-(2-(((1R,5S,6r)-3,3-dioxido-3-thiabicyclo[3.1.0]hexan-6-yl)amino)pyrimidin-4-yl)thiazol-4-yl)-2-fluorophenyl)-2-(difluoromethoxy)-6-fluorobenzenesulfonamide] | 0.17
20 | O=S1(=O)CC2(CC(Nc3nccc(-c4sc(N5CC6CCC5CC6)nc4-c4cccc(NS(=O)(=O)c5c(F)cccc5F)c4F)n3)C2)C1 [Example 18, N-(3-(2-(2-azabicyclo[2.2.2]octan-2-yl)-5-(2-((2,2-dioxido-2-thiaspiro[3.3]heptan-6-yl)amino)pyrimidin-4-yl)thiazol-4-yl)-2-fluorophenyl)-2,6-difluorobenzenesulfonamide] | 0.079
21 | O=S1(=O)CC2(CC(Nc3nccc(-c4sc(N5C6CCCC5CC6)nc4-c4cccc(NS(=O)(=O)c5c(F)cccc5F)c4F)n3)C2)C1 [Example 19, N-(3-(2-(8-azabicyclo[3.2.1]octan-8-yl)-5-(2-((2,2-dioxido-2-thiaspiro[3.3]heptan-6-yl)amino)pyrimidin-4-yl)thiazol-4-yl)-2-fluorophenyl)-2,6-difluorobenzenesulfonamide] | 0.19
